Reference: US10954214B2 (Janssen Pharmaceutica NV, priority 2016, dated 2021)

How the values were obtained:
[1] = target: full-length MALT1 protein (Strep-MALT1(1-824)-His) (Homo sapiens (Human), UniProt Q9UDY8); test: MALT1 Biochemical Protease Assay (Ac-LRSR-AMC substrate); settings: 10 nM FL MALT1, 200 μM Ac-LRSR-AMC, 4 h at RT; read-out: MALT1_Biochemical activity (Ac-LRSR-amc) IC50
Summary of the method: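 Full-length MALT1 pre-incubated with compounds (30 μM to 0.5 nM, 11 threefold steps) for 50 min at RT. After Ac-LRSR-AMC was added, the reaction ran 4 h at RT and AMC fluorescence was read. IC50 and Hill slope from curve fitting against no-enzyme and no-compound controls.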

Jurkat cells = test: PMA Induced IL2 Production In Jurkat Cells; type: cell-based; settings: Homo sapiens, PMA/Ionomycin, 20 h, read-out: IL-2 prod h Jurkat PMA IC50
Procedure: Jurkat cells were maintained in complete RPMI 1640 media containing 10% fetal bovine serum, 10 mM HEPES, 100 units/mL of penicillin and 100 μg/mL of streptomycin. Prior to the assay, compounds were made 2- to 4-fold serial dilutions in DMSO. A volume of 10 μL of DMSO-diluted compound in each well were further diluted into 240 μL RPMI1640 complete media. Jurkat cells were harvested by centrifuge at 1200 RPM for 5 min, washed one time with RPMI 1640 media, and suspended in fresh complete RPMI 1640 media at concentration of 1.25×10^6 cell/mL. A volume of 160 uL of Jurkat cells (2×10^5 cells) were seeded in each well of 96 well plate-bottom plates. A volume of 20 uL of diluted compound in RMPI 1640 complete media were added to each well and incubated with Jurkat cells for 30 min at 37° C. in a 5% CO2 incubator. A volume 20 μL of diluted PMA/Ionomycin (81 nM/1.3 uM respectively, ebioscience, catalog number 00-4970-93) in RMPI 1640 complete media were added to each well. After incubation at 37° C. in 5% CO2 incubator for 20 h, supernatants were harvested. IL-2 concentration was assessed by ELISA (IL2 Duoset, R&D Systems, catalog number DY202). Colorimetric intensity at 450 nm was read by Spectramax plate reader and analyzed with Softmax Pro software. Cell viability was assessed by Cell Titer Glo kit (Promega, catalog number G7571) using Victor Luminescence reader (Victor 3V 4202938 by Perkin Elmer).

[2] = system: IL6 secretion by TMD8 ABC-DLBCL cells; test: Human IL6 Mesoscale assay (TMD-8); type: cell-based; settings: Homo sapiens, TMD8; TMD-8 cells, 24 h
Summary of the method: (§1)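 TMD8 or OCI-LY3 cells (100,000/well) were exposed to compounds in 9 twofold dilutions from 15 μM to 58.6 nM (0.3% DMSO) for 24 h at 37 °C. Supernatant IL6 and IL10 were quantified by MSD electrochemiluminescence immunoassay. DMSO defined maximum signal and BTK inhibitor RN486 (30 nM–131 pM) defined maximum inhibition.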

[3] = system: IL10 secretion by TMD8 ABC-DLBCL cells; test: Human IL10 Mesoscale assay (TMD-8); type: cell-based; settings: Homo sapiens, TMD8; TMD-8 cells, 24 h
Summary of the method: as §1

OCI-Ly3 cells = test: 4-day proliferation assay, OCI-Ly3; type: cell-based, human; settings: Homo sapiens, 96 h, 4 days incubation, CellTiterGLO, read-out: Anti-proliferation: OCI-LY-3 IC50
Summary of the method: (§2)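 TMD8 and OCI-Ly3 cells were seeded at 10,000 per well and grown 4 days at 37° C, 5% CO2 without beta-mercaptoethanol. Viability was read by CellTiter-Glo luminescence. IC50 and Hill slope were fitted relative to the low control median.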

TMD8 cells = test: 4-day proliferation assay, TMD8; type: cell-based; settings: Homo sapiens, 96 h, 4 days incubation, CellTiterGLO, read-out: Anti-proliferation: TMD-8 IC50
Summary of the method: as §2

Sequence of full-length MALT1 protein (Strep-MALT1(1-824)-His) (Q9UDY8 whole entry): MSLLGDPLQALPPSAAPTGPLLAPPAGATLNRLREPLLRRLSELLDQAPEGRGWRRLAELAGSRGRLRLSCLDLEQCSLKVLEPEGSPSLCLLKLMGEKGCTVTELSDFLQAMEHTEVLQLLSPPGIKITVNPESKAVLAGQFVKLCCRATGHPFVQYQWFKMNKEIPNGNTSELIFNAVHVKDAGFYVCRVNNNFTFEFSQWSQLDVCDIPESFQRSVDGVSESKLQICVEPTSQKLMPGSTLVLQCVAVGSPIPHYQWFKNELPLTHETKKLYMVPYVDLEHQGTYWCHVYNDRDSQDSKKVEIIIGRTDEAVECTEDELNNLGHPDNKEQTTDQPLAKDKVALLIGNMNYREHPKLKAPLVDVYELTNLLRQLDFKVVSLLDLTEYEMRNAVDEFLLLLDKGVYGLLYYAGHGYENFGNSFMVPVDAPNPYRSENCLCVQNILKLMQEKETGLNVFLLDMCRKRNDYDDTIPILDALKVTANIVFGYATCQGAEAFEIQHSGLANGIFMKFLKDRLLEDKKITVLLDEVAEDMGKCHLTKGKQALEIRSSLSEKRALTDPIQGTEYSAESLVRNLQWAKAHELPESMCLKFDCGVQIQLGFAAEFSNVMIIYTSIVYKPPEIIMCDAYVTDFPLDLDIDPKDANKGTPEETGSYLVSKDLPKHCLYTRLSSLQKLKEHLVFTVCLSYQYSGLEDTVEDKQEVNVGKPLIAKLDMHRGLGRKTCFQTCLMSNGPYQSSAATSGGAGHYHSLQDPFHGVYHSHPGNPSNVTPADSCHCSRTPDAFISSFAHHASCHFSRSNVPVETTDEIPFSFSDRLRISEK

SMILES | IC50 [1] [nM] | IC50 (Jurkat cells) [nM] | IC50 [2] [nM] | IC50 [3] [nM] | IC50 (OCI-Ly3 cells) [nM] | IC50 (TMD8 cells) [nM]
Cc1ccc2cncc(-n3ncc(C(=O)Nc4cnc(-n5nccn5)c(Cl)c4)c3C(F)(F)F)c2c1 [Cpd 36, N-(5-Chloro-6-(2H-1,2,3-triazol-2-yl)pyridin-3-yl)-1-(6-methylisoquinolin-4-yl)-5-(trifluoromethyl)-1H-pyrazole-4-carboxamide] | 63 | 270 | 135 | 141 | 1910 | 7940
O=C(Nc1cnc(-n2nccn2)c(Cl)c1)c1cnn(-c2ccc(F)c3ncccc23)c1C(F)(F)F [Cpd 40, N-(5-Chloro-6-(2H-1,2,3-triazol-2-yl)pyridin-3-yl)-1-(8-fluoroquinolin-5-yl)-5-(trifluoromethyl)-1H-pyrazole-4-carboxamide] | 48 | 95 | 30 | 35 | 150 | 6170
Cc1c(C(=O)Nc2cnc(-n3nccn3)c(Cl)c2)cnn1-c1cccc2ncccc12 [Cpd 39, N-(5-Chloro-6-(2H-1,2,3-triazol-2-yl)pyridin-3-yl)-5-methyl-1-(quinolin-5-yl)-1H-pyrazole-4-carboxamide] | 759 | 1970 | 1950 | 955 | ~1120 | 14400
O=C(Nc1ccnc(C(F)(F)F)c1)c1cnn(-c2cccc3ccccc23)c1C(F)(F)F [Cpd 3, 1-(Naphthalen-1-yl)-5-(trifluoromethyl)-N-(2-(trifluoromethyl)pyridin-4-yl)-1H-pyrazole-4-carboxamide] | 191 | 160 | 219 | 138 | ~2880 | 9550
O=C(Nc1ccc(-n2ccnn2)c(Cl)c1)c1cnn(-c2cncc3ccccc23)c1C(F)(F)F [compound 43, N-(3-chloro-4-(1H-1,2,3-triazol-1-yl)phenyl)-1-(isoquinolin-4-yl)-5-(trifluoromethyl)-1H-pyrazole-4-carboxamide] | 60 | 54 | 102 | 81 | ~260 | 4680
COC(C)c1c(C(=O)Nc2cnc(-n3nccn3)c(Cl)c2)cnn1-c1cccc2ncccc12 (stereo not drawn) [Cpd 35, N-(5-Chloro-6-(2H-1,2,3-triazol-2-yl)pyridin-3-yl)-5-(1-methoxyethyl)-1-(quinolin-5-yl)-1H-pyrazole-4-carboxamide] | 813 | 3240 | 6030 | 2880 | 10700 | 11000
COc1ncc(NC(=O)c2cnn(-c3cncc4ccccc34)c2C(F)(F)F)cc1C#N [Cpd 24, N-(5-cyano-6-methoxypyridin-3-yl)-1-(isoquinolin-4-yl)-5-(trifluoromethyl)-1H-pyrazole-4-carboxamide] | 74 | 740 | 93 | 129 | ~1950 | ~10000
Cn1ccc(-c2ncc(NC(=O)c3cnn(-c4cncc5ccccc45)c3C(F)(F)F)cc2Cl)n1 [Cpd 52, N-(5-chloro-6-(1-methyl-1H-pyrazol-3-yl)pyridin-3-yl)-1-(isoquinolin-4-yl)-5-(trifluoromethyl)-1H-pyrazole-4-carboxamide] | 35 | 130 | 79 | 91 | 210 | 5010
O=C(Nc1cnc(-c2ncco2)c(Cl)c1)c1cnn(-c2cncc3ccccc23)c1C(F)(F)F [Cpd 50, N-(5-Chloro-6-(oxazol-2-yl)pyridin-3-yl)-1-(isoquinolin-4-yl)-5-(trifluoromethyl)-1H-pyrazole-4-carboxamide] | 20 | 31 | 107 | 47 | 90 | 7080
N#Cc1ncc(NC(=O)c2cnn(-c3cncc4ccccc34)c2C(F)(F)F)cc1C(F)(F)F [Cpd 49, N-(6-cyano-5-(trifluoromethyl)pyridin-3-yl)-1-(isoquinolin-4-yl)-5-(trifluoromethyl)-1H-pyrazole-4-carboxamide] | 155 | 18 | ~83 | 76 | 410 | 5010
O=C(Nc1cnc(-n2cccn2)c(Cl)c1)c1cnn(-c2cncc3ccccc23)c1C(F)(F)F [Cpd 46, N-(5-Chloro-6-(1H-pyrazol-1-yl)pyridin-3-yl)-1-(isoquinolin-4-yl)-5-(trifluoromethyl)-1H-pyrazole-4-carboxamide] | 56 | 22 | ~46 | 32 | 630 | 9330
N#Cc1cc(NC(=O)c2cnn(-c3cncc4ccccc34)c2C(F)(F)F)cnc1-n1nccn1 [Cpd 47, N-(5-cyano-6-(2H-1,2,3-triazol-2-yl)pyridin-3-yl)-1-(isoquinolin-4-yl)-5-(trifluoromethyl)-1H-pyrazole-4-carboxamide] | 11 | 9 | ~48 | ~10 | ~190 | 8130
